Results: DBAASP
Values after ≈ are worked out from the molar mass of the structure shown. Values belong to the compound of their own block, whether it stands above or below them.

Experiments:
Assay in all cases: ≥ marks a high value that may be exact or a test limit, other limits are often not marked, values filed in µg/mL are converted to µM
[1] = system: Escherichia coli ATCC 25922
[2] = system: Escherichia coli BW25113
[3] = system: Escherichia coli BW25113 ΔwaaG
[4] = system: Escherichia coli BW25113 ΔsbmA
[5] = system: Bacillus subtilis
[6] = system: Cryptococcus neoformans var. grubii H99
[7] = system: Xanthomonas campestris pv. campestris
[8] = system: Escherichia coli DH5alpha
[9] = system: Xanthomonas oryzae pv. oryzae
[10] = system: Pseudomonas aeruginosa ATCC 27853
[11] = system: Candida albicans SC5314
[12] = system: Pseudomonas aeruginosa 6206
[13] = system: Staphylococcus aureus 38
[14] = system: Pseudomonas aeruginosa ATCC 19660
[15] = system: Pseudomonas aeruginosa 37
[16] = system: Pseudomonas aeruginosa 6294
[17] = system: Staphylococcus aureus 31
[18] = system: Staphylococcus aureus ATCC 6538
[19] = system: Staphylococcus aureus NCDC 0111
[20] = system: Salmonella enterica subsp. enterica serovar Typhimurium ATCC 14028
[21] = system: Acinetobacter johnsonii NCDC 0072
[22] = system: Escherichia coli MTCC 0723
[23] = system: Bacillus cereus NCDC 0240
[24] = system: Listeria monocytogenes ATCC 19111
[25] = system: Staphylococcus aureus ATCC 29213
[26] = system: Pseudomonas aeruginosa NCDC 0105
[27] = system: Candida albicans ATCC 2002
[28] = system: Staphylococcus aureus ATCC 2592
[29] = system: Candida albicans 08032815
[30] = system: Candida albicans 08030809
[31] = system: Candida albicans 08022710
[32] = system: Candida albicans 08022821
[33] = system: Listeria monocytogenes KCTC 3710
[34] = system: Aspergillus fumigatus KCTC 6145
[35] = system: Trichosporon beigelii KCTC 7707
[36] = system: Aspergillus awamori KCTC 6915
[37] = system: Aspergillus flavus KCTC 6905
[38] = system: Proteus vulgaris KCTC 2433
[39] = system: Staphylococcus epidermidis ATCC 12228
[40] = system: Bacillus subtilis KCTC 1998
[41] = system: Candida albicans KCTC 7270
[42] = system: Pseudomonas aeruginosa ATCC 15692
[43] = system: Aspergillus parasiticus KCTC 6598
[44] = system: Staphylococcus aureus ATCC 25923
[45] = system: Salmonella typhimurium KCTC 1926

SMILES: CC[C@H](C)[C@H](N)C(=O)N[C@@H](CCCN=C(N)N)C(=O)N1CCC[C@H]1C(=O)N[C@@H](CCCN=C(N)N)C(=O)N1CCC[C@H]1C(=O)N1CCC[C@H]1C(=O)N[C@@H](CCCN=C(N)N)C(=O)N[C@@H](CC(C)C)C(=O)N1CCC[C@H]1C(=O)N[C@@H](CCCN=C(N)N)C(=O)N1CCC[C@H]1C(=O)N[C@@H](CCCN=C(N)N)C(=O)N1CCC[C@H]1C(=O)N[C@@H](CCCN=C(N)N)C(=O)N1CCC[C@H]1C(=O)N[C@@H](CC(C)C)C(=O)N1CCC[C@H]1C(=O)N[C@@H](Cc1ccc(O)cc1)C(=O)N1CCC[C@H]1C(=O)N[C@@H](CCCN=C(N)N)C(=O)N1CCC[C@H]1C(=O)O [IRPRPPRLPRPRPRPLPYPRP]
MIC [1]: 8 µM (≈ 20.7 µg/mL) | MIC [2]: 8 µM (≈ 20.7 µg/mL) | MIC [3]: 4 µM (≈ 10.3 µg/mL) | MIC [4]: ≥ 32 µM

SMILES: CC[C@H](C)[C@H](NC(=O)[C@H](Cc1c[nH]c2ccccc12)NC(=O)[C@@H]1CCCN1C(=O)[C@H](CC(C)C)NC(=O)CN)C(=O)N[C@@H](CC(C)C)C(=O)N[C@@H](CC(C)C)C(=O)N[C@@H](CCCN=C(N)N)C(=O)N[C@@H](Cc1c[nH]c2ccccc12)C(=O)N[C@@H](CC(C)C)C(=O)N[C@@H](Cc1ccccc1)C(=O)N[C@@H](Cc1ccccc1)C(=O)N[C@@H](CCCN=C(N)N)C(=O)NCC(=O)O [GLPWILLRWLFFRG]
MIC [19]: 25 µM (≈ 44.4 µg/mL) | MIC [20]: 100 µM (≈ 177 µg/mL) | MIC [21]: ≥ 200 µM | MIC [22]: ≥ 200 µM | MIC [23]: ≥ 100 µM | MIC [24]: 6 µM (≈ 10.6 µg/mL) | MIC [25]: 3 µM (≈ 5.32 µg/mL) | MIC [26]: ≥ 200 µM | MIC [10]: > 200 µM

SMILES: CC[C@H](C)[C@H](NC(=O)[C@H](CCCCN)NC(=O)[C@H](CCCCN)NC(=O)[C@H](C)NC(=O)[C@H](CC(C)C)NC(=O)[C@H](CCCCN)NC(=O)[C@H](CCCCN)NC(=O)[C@H](CC(C)C)NC(=O)[C@H](CCCN=C(N)N)NC(=O)[C@H](CCCCN)NC(=O)[C@@H](N)Cc1ccccc1)C(=O)N[C@@H](Cc1c[nH]c2ccccc12)C(=O)N[C@@H](CC(N)=O)C(=O)N[C@@H](Cc1c[nH]c2ccccc12)C(=O)N[C@@H](CCCCN)C(N)=O [FKRLKKLAKKIWNWK]
MIC [33]: 2 µM (≈ 3.97 µg/mL) | MIC [34]: 8 µM (≈ 15.9 µg/mL) | MIC [35]: 16 µM (≈ 31.8 µg/mL) | MIC [36]: 16 µM (≈ 31.8 µg/mL) | MIC [1]: 4 µM (≈ 7.95 µg/mL) | MIC [37]: 16 µM (≈ 31.8 µg/mL) | MIC [38]: 4 µM (≈ 7.95 µg/mL) | MIC [39]: 2.83 µM (≈ 5.62 µg/mL) | MIC [40]: 4 µM (≈ 7.95 µg/mL) | MIC [41]: 8 µM (≈ 15.9 µg/mL) | MIC [42]: 2 µM (≈ 3.97 µg/mL) | MIC [43]: 8 µM (≈ 15.9 µg/mL) | MIC [44]: 4 µM (≈ 7.95 µg/mL) | MIC [45]: 2 µM (≈ 3.97 µg/mL)

The remaining lines, values ahead:

MIC [5]: ≥ 100 µM | MIC [6]: ≥ 100 µM | MIC [7]: ≥ 100 µM | MIC [8]: ≥ 100 µM | MIC [9]: ≥ 100 µM | MIC [10]: > 100 µM | MIC [11]: ≥ 100 µM
SMILES: CC(C)C[C@H](NC(=O)CNC(=O)[C@H](CS)NC(=O)CNC(=O)[C@H](CC(N)=O)NC(=O)CNC(=O)[C@H](Cc1c[nH]c2ccccc12)NC(=O)CNC(=O)[C@H](CCCN=C(N)N)NC(=O)[C@H](CC(=O)O)NC(=O)[C@@H](N)C(C)C)C(=O)N[C@@H](Cc1ccccc1)C(=O)NCC(=O)N[C@@H](CCCCN)C(=O)NCC(=O)NCC(=O)O [VDRGWGNGCGLFGKGG]

MIC [12]: ≥ 66 µM | MIC [13]: ≥ 33 µM | MIC [14]: ≥ 132 µM | MIC [15]: ≥ 33 µM | MIC [16]: ≥ 66 µM | MIC [17]: ≥ 33 µM | MIC [18]: 16.5 µM (≈ 62.5 µg/mL)
SMILES: CC[C@H](C)[C@H](NC(=O)[C@H](Cc1c[nH]c2ccccc12)NC(=O)[C@H](CO)NC(=O)[C@@H](NC(=O)[C@H](CC(C)C)NC(=O)[C@@H](N)[C@@H](C)O)[C@@H](C)CC)C(=O)N[C@@H](CCCCN)C(=O)N[C@@H](CC(N)=O)C(=O)N[C@@H](CCCCN)C(=O)N[C@@H](CCCN=C(N)N)C(=O)N[C@@H](CCCCN)C(=O)N[C@@H](CCC(N)=O)C(=O)N[C@@H](CCCN=C(N)N)C(=O)N1CCC[C@H]1C(=O)N[C@@H](CCCN=C(N)N)C(=O)N[C@H](C(=O)N[C@@H](CO)C(=O)N[C@@H](CCCN=C(N)N)C(=O)N[C@@H](CCCN=C(N)N)C(=O)N[C@@H](CCCN=C(N)N)C(=O)N[C@@H](CCCN=C(N)N)C(=O)N[C@@H](CCCN=C(N)N)C(=O)N[C@@H](CCCN=C(N)N)C(=O)NCC(=O)NCC(=O)N[C@@H](CCCN=C(N)N)C(=O)N[C@@H](CCCN=C(N)N)C(=O)N[C@@H](CCCN=C(N)N)C(=O)N[C@@H](CCCN=C(N)N)C(=O)O)C(C)C [TLISWIKNKRKQRPRVSRRRRRRGGRRRR]

MIC [5]: 0.525 µM (≈ 1.17 µg/mL) | MIC [1]: 4.21 µM (≈ 9.38 µg/mL) | MIC [27]: 0.265 µM (≈ 0.59 µg/mL) | MIC [28]: 0.525 µM (≈ 1.17 µg/mL) | MIC [29]: 1.25 µM (≈ 2.79 µg/mL) | MIC [30]: 0.628 µM (≈ 1.4 µg/mL) | MIC [31]: 2.1 µM (≈ 4.69 µg/mL) | MIC [32]: 1.4 µM (≈ 3.13 µg/mL)
SMILES: CC(C)[C@H](N)C(=O)N[C@@H](CCCCN)C(=O)N[C@@H](CCCN=C(N)N)C(=O)N[C@@H](Cc1c[nH]c2ccccc12)C(=O)N[C@@H](CCCCN)C(=O)N[C@@H](CCCCN)C(=O)N[C@@H](Cc1c[nH]c2ccccc12)C(=O)N[C@@H](CCCN=C(N)N)C(=O)N[C@@H](Cc1c[nH]c2ccccc12)C(=O)N[C@@H](CCCCN)C(=O)N[C@@H](Cc1c[nH]c2ccccc12)C(=O)N[C@@H](CCCCN)C(=O)N[C@@H](CCCCN)C(=O)N[C@@H](Cc1c[nH]c2ccccc12)C(=O)N[C@H](C(N)=O)C(C)C [VKRWKKWRWKWKKWV]
